# Key:
# [1] = system: mice treated with Aβ25-35; assay: Spontaneous alternation in the Y-maze, Aβ25-35 amyloid toxicity model; assay type: in vivo; conditions: for active dose (neuroprotective effects): non-transgenic AD model, ICV Aβ25-35 in mice
# Description: Male mice (RjOrl:SWISS) from Janvier laboratories (Le Genest-Saint-Isle, France), aged 7-9 weeks and weighing 32±2 g were used for this study. The animals were grouped in plastic cages with free access to the […] and water, in a regulated environment (23±1° C., humidity 40-60%, 12 h light/dark cycle).
# The compounds were solubilized in physiological saline solution (0.9% NaCl) or in dimethylsulfoxide (DMSO) 10% in the saline solution and administered via intraperitoneal route (IP) in a volume of 100 μl per 20 g body weight.
# The amyloid-β[25-35] peptide (Aβ25-35) and control peptide (Sc.Aβ) were obtained from Genepep (Saint-Jean-de-Vedas, France). They were solubilized in injectable distilled water at a concentration of 3 mg/ml and stored at −20° C. Before injection, the peptides were incubated at 37° C. for 4 days, which enabled the Aβ25-35 peptide but not the Sc.Aβ, to form oligomers. They were administered via intracerebroventricular route (ICV). The animals were anesthetized by inhaling 2.5% isoflurane (TEM) and were given 3 μl of peptide solution via direct ICV route (Haley and McCormick's method). For injection a 10 μl Hamilton micro-syringe was used at a flow rate of 1 μl/min.
# (§1) The animals were tested for spontaneous alternation performance in a Y-maze, an index of spatial working memory. The Y-maze was in grey PVC. Each arm was 40 cm long, 13 cm high, 3 cm wide at the base and 10 cm wide in the upper part, and converging at an equal angle. Each mouse was placed at one end of an arm and was able to move freely through the maze during an 8-min session. The series of arm entries, including any returns in the same arm were visually analysed. Alternation is defined as being consecutive entries in three different arms. The maximum number of alternations is therefore the total number of arm entries less two, and alternation percentage is calculated as (actual alternations/maximum possible alternations)×100. The parameters comprise the alternation percentage (memory index) and the total number of arm entries (exploratory index).
# […] After one week, the animals were tested for behavioural performance, then sacrificed and the brain dissected for biochemical analyses.
# On Day 7, after the injections of 3b and amyloid peptide, the mice were tested for their ability to alternate in the Y-maze, a spatial working memory test. […] The mice were then tested for passive avoidance response, a long-term non-spatial memory test. with training on Day 8 and recall on Day 9 after the injections (FIG. 1c).
# APPSwe mice = assay: Spontaneous alternation in Y-maze, transgenic APPSwe mice, chronic treatment; assay type: in vivo; conditions: for alternation deficit of APPSwe animals: 1 mg/kg/d
# Description: FIG. 8: Spontaneous alternation (a, b) and total number of arm entries (c, d) of APPSwe mice given compound 3b, in the Y-maze, after treatment of one month (a, c) and 2 months (b, d). The animals were given compound 3b (0.7 or 2 mg/kg IP) 3 times per week for 1 or 2 months. N=6-15 per group. ANOVA: F(5.49)=3.84, p<0.01 at (a); F(5.54)=1.54, p>0.05 at (b); F<1 at (c) et (d). *p<0.05, **p<0.01 compared with group (WT+V); #p<0.05 compared with group (APPSwe+V); Dunnett test at (a, b).
# FIG. 10: Spontaneous alternation (a, b) and number of arm entries (c, d) for APPSwe mice treated with compound 3c, in the Y-maze, after treatment for 1 month (a, c) or 2 months (b, d). The animals were given compound 3c (1 mg/kg IP) 3 times per week for 1 or 2 months. N=10-13 per group. ANOVA: F(3.45)=3.61, p<0.05 at (a); F(3.38)=6.33, p<0.01 at (b); F<1 at (c) and (d). *p<0.05, ***p<0.001 compared with group WT/V; #p<0.05 compared with group APPSwe/V; Dunnett test at (a, b).
# as §1
# TG2576 mice, over-expressing the human amyloid precursor protein carrying the Swedish double mutation APPSwe, develop the pathology towards the age of 8-10 months and up until 15-17 months, age at which 95% of the animals show behavioural, biochemical and morphological signs of the disease. Compound 3b was administered under chronic treatment at doses of 0.7 mg/kg/d IP and then 2 mg/kg/d IP. The effect of compound 3c, at a dose of 1 mg/kg/j IP, was also documented.
SMILES,"spontaneous alternation deficit induced by Aβ25-35 (Y-maze) ([1]; 0.3 mg/kg IP (range tested 0.03-0.7; only this dose efficient), Day 7)",active dose (neuroprotective effects) ([1]; IP) [mg/kg],alternation deficit of APPSwe animals (APPSwe mice; 1 month),alternation deficit of APPSwe animals (APPSwe mice; 2 months),"minimum active dose ([1]; dose-dependent experiments, Aβ25-35 model, IP) [mg/kg]","alternation in the WT animals (APPSwe mice; lowest dose (0.7 mg/kg/d), 2 months)","spontaneous alternation performance of wild-type control animals (APPSwe mice; treatment for one month, 0.7 or 2 mg/kg IP)"
"CC1(C)COP(=O)(c2ccc(Cl)cc2)C(C)(C)N1 (racemic) [Compound 3c, (±)-2-(4-Chlorophenyl)-2-oxo-3,3,5,5-tetramethyl-[1,4,2]-oxazaphosphinane]",significantly prevents spontaneous alternation deficit,0.3,attenuated,significantly blocked,,,
"CC1(C)COP(=O)(c2cccc(Cl)c2)C(C)(C)N1 (racemic) [Compound 3b, (±)-2-(3-Chlorophenyl)-2-oxo-3,3,5,5-tetramethyl-[1,4,2]-oxazaphosphinane]",,0.7,,,0.7,appears to impact alternation,does not affect the performance

# Source: patent US10947260B2, “Phosphinolactone derivatives and pharmaceutical uses thereof” (INSTITUT NATIONAL DE LA SANTE ET DE LA RECHERCHE MEDICALE …, priority 2016, dated 2021)
